Results reported in US4141899A, “4,5,6,7-Tetrahydroimidazo-[4,5-c]-pyridine derivatives” (Societa' Farmaceutici Italia S.p.A., priority 1976, dated 1979).
Like-named read-outs stand apart in the source and are kept apart here.

Experiments:
Type in all cases: in vivo, Sprague-Dawley male rats
[1] = system: chromodacryorhea induced by carbacholine; test: Anticholinergic activity in rats (antagonism against chromodacryorhea induced by carbacholine); details: for ED50: Rattus norvegicus, po, read-out: anticholinergic ED50 p.o. (B); for B/A (ratio of ED50's for oral anti-cholinergic and anti-ulcer activities): B = anticholinergic ED50, A = antiulcer ED50
Description: 3. Anticholinergic activity in rats. […] J. Pharm. […] From 3 to 5 Sprague-Dawley male rats, 250 g body weight, have been employed for each group. […] The compound reference numbers are explained in the Examples below.

restraint ulcer = test: Inhibition of restraint ulcer in rats; details: Rattus norvegicus
Protocol: 1. […] Six Sprague-Dawley male rats (100-200 g) fasted for 24 hours were used for each group.
A square flexible small-mesh wire netting was used for immobilization. After 4 hours immobilization the rats were sacrificed, their stomachs were removed, and lesions counted under a dissecting microscope.
The compounds were administered subcutaneously (s.c.) immediately before the immobilization or orally (os) one hour before.

gastric secretion = test: Inhibition of gastric secretion in rats (pylorus ligature technique); details: Rattus norvegicus, sc, s.c. at the time of pylorus ligature, 4 h, read-out: Antisecretory ED50 s.c.
Protocol: 2. […] Gastric antisecretory activity was evaluated in rats by the pylorus ligature technique.
Six Sprague-Dawley male rats (110-130 g) were used for each group. Twenty-four hours before the test, the rats were deprived of food but their water supply was maintained.
On the day of the operation, the pylorus was ligated under light ether anaesthesia. Four hours after the ligature, the rats were sacrificed, the stomach secretion was collected and centrifuged at 3500 r.p.m. for 10 minutes, and the volume, less sediment, was determined. The amount of the free hydrochloric acid in the gastric juice was determined by titration against 0.01N sodium hydroxide, using Topfer's Indicator.
Each compound was injected subcutaneously at the time of ligature.

[2] = po, p.o. one hour before 4 h immobilization, read-out: Antiulcer ED50 p.o (A)
[3] = sc, s.c. immediately before 4 h immobilization, read-out: Antiulcer ED50 s.c.
[4] = rats, p.o., carbacholine-induced chromodacryorhea

| Structure (SMILES) | ED50 [1] | B/A (ratio of ED50's for oral anti-cholinergic and anti-ulcer activities) ([1]; rats, p.o.) | B/A (ratio of ED50's for oral anti-cholinergic and anti-ulcer activities) ([1]; rats, p.o., listed as atropine) | ED50 (restraint ulcer; [2]) | ED50 (restraint ulcer; [3]) | ED50 (gastric secretion) | ED50 [1, 4] | B/A (ratio of ED50's for oral anti-cholinergic and anti-ulcer activities) ([1]; rats, p.o., listed as methiamide) |
| --- | --- | --- | --- | --- | --- | --- | --- | --- |
| CN1[C@@H]2CC[C@H]1C[C@@H](OC(=O)C(CO)c1ccccc1)C2 (stereo partly shown) [Atropine, reference compound] | 0.8 mg/kg | 2 | about 2 | 0.4 mg/kg | 0.02 mg/kg | 0.1 mg/kg |  |  |
| CNC(=S)NCCSCc1nc[nH]c1C [Methiamide, reference compound] |  | 1.3 |  | 64 mg/kg | 14 mg/kg | 60 mg/kg | 85 mg/kg | about 2 |
| CNC(=S)N1CCc2[nH]cnc2C1 [compound 1068, 5-(N-methyl-thiocarbamoyl)-4,5,6,7-tetrahydroimidazo-[4,5-c]-pyridine] |  | > 40 |  | 2.4 mg/kg | 0.6 mg/kg | > 50 mg/kg | > 100 mg/kg |  |
| CC(C)NC(=S)N1CCc2[nH]cnc2C1 [compound 1087, 5-(N-isopropyl-thiocarbamoyl)-4,5,6,7-tetrahydro-imidazo-[4,5-c]-pyridine] |  | 0.6 |  | 3.1 mg/kg | 0.9 mg/kg | 6 mg/kg | 2 mg/kg |  |
| S=C(Nc1ccccc1)N1CCc2[nH]cnc2C1 [compound 1116, 5-(N-Phenyl-thiocarbamoyl)-4,5,6,7-tetrahydro-imidazo-[4,5-c]-pyridine] |  |  |  | > 34 mg/kg | > 10 mg/kg | 23 mg/kg |  |  |
| CCC1c2nc[nH]c2CCN1C(=S)NC(C)C (stereo not shown) [compound 1184, 4-Ethyl-5-(N-isopropyl-thiocarbamoyl)-4,5,6,7-tetrahydro-imidazo-[4,5-c]-pyridine] |  |  |  | 11 mg/kg | 0.64 mg/kg | 22 mg/kg | 10 mg/kg |  |
| CC(C)NC(=S)N1CCc2ncn(C)c2C1 [compound 1286] |  | > 5.8 |  | 8.5 mg/kg | 0.85 mg/kg | 34 mg/kg | > 50 mg/kg |  |
| CCNC(=S)N1CCc2[nH]cnc2C1 [compound 1293, 5-(N-ethyl-thiocarbamoyl)-4,5,6,7-tetrahydro-imidazo-[4,5-c]-pyridine] |  |  |  | 25 mg/kg | 6 mg/kg | 8 mg/kg |  |  |
| CCC1c2nc[nH]c2CCN1C(=O)NC(C)C (stereo not shown) [compound 1316, 4-Ethyl-5-(N-isopropyl-carbamoyl)-4,5,6,7-tetrahydro-imidazo-[4,5-c]-pyridine] |  | 10 |  | 6.6 mg/kg | 0.75 mg/kg | 50 mg/kg | 70 mg/kg |  |
| CC(C)NC(=O)N1CCc2[nH]cnc2C1 [compound 1348, 5-(N-isopropyl-carbamoyl)-4,5,6,7-tetrahydro-imidazo-[4,5-c]-pyridine] |  | 14 |  | 0.55 mg/kg | 0.1 mg/kg | 18 mg/kg | 7.8 mg/kg |  |
| CNC(=O)N1CCc2[nH]cnc2C1 [compound 1350, 5-(N-methyl-carbamoyl)-4,5,6,7-tetrahydro-imidazo-[4,5-c]-pyridine] |  | > 18 |  | 5.6 mg/kg | 6.5 mg/kg | > 50 mg/kg | > 100 mg/kg |  |
| S=C(NC1CC1)N1CCc2[nH]cnc2C1 [compound 1359, 5-(N-cyclopropyl-thiocarbamoyl)-4,5,6,7-tetrahydro-imidazo-[4,5-c]-pyridine] |  | 25 |  | 1.8 mg/kg | 5 mg/kg | 40 mg/kg | 45.5 mg/kg |  |
| S=C(NC1CCCC1)N1CCc2[nH]cnc2C1 [compound 1360, 5-(N-cyclopentyl-thiocarbamoyl)-b 4,5,6,7-tetrahydro-imidazo-[4,5-c]-pyridine] |  | 13 |  | 5.6 mg/kg | > 10 mg/kg | 19 mg/kg | 76 mg/kg |  |
| CCCNC(=S)N1CCc2[nH]cnc2C1 [compound 1361, 5-(N-n-propyl-thiocarbamoyl)-4,5,6,7-tetrahydro-imidazo-[4,5-c]-pyridine] |  |  |  | 25 mg/kg | 10 mg/kg | 50 mg/kg |  |  |
| O=C(NC1CC1)N1CCc2[nH]cnc2C1 [compound 1365, 5-(N-cyclopropyl-carbamoyl)-4,5,6,7-tetrahydro-imidazo-[4,5-c]-pyridine] |  | 5.5 |  | 3.8 mg/kg | 2 mg/kg | 50 mg/kg | 21 mg/kg |  |
| O=C(NC1CCCC1)N1CCc2[nH]cnc2C1 [compound 1366, 5-(N-cyclopentyl-carbamoyl)-4,5,6,7-tetrahydro-imidazo-[4,5-c]-pyridine] |  | 2.6 |  | 3.8 mg/kg | 0.75 mg/kg | 17 mg/kg | 10 mg/kg |  |
| CC(C)NC(=S)N1CCc2[nH]cnc2C1C1CCCCC1 (stereo not shown) [compound 1367, 4-Cyclohexyl-5-(N-isopropyl-thiocarbamoyl)-4,5,6,7-tetrahydro-imidazo-[4,5-c]-pyridine] |  | > 18 |  | 6 mg/kg | 3.3 mg/kg | > 50 mg/kg | > 100 mg/kg |  |
| CCC1c2c(ncn2CC)CCN1C(=S)NC(C)C (stereo not shown) [compound 1399, 3,4-Diethyl-5-(N-isopropyl-thiocarbamoyl)-4,5,6,7-tetrahydroimidazo-[4,5-c]-pyridine] |  | > 25 |  | 4 mg/kg | 3.5 mg/kg |  | > 100 mg/kg |  |
| CCC1c2c(ncn2CC)CCN1C(=O)NC(C)C (stereo not shown) [compound 1400, 3,4-Diethyl-5-(N-isopropyl-carbamoyl)-4,5,6,7-tetrahydro-imidazo-[4,5-c]-pyridine] |  | > 5.5 |  | 18 mg/kg | 10 mg/kg | 50 mg/kg | > 100 mg/kg |  |
| CCC1c2c(ncn2C)CCN1C(=O)NC(C)C (stereo not shown) [compound 1404, 3-Methyl-4-ethyl-5-(N-isopropyl-carbamoyl)-4,5,6,7-tetrahydroimidazo-[4,5-c]-pyridine] |  |  |  | 34 mg/kg | 10 mg/kg | > 50 mg/kg |  |  |
| CCC1c2nc[nH]c2CCN1C(=N)NC(=O)c1ccccc1 (stereo not shown) [compound 1448, 4-Ethyl-5-(N-benzoylguanyl)-4,5,6,7-tetrahydroimidazo-[4,5-c]-pyridine] |  | > 4 |  | 22 mg/kg | > 10 mg/kg | > 50 mg/kg | > 100 mg/kg |  |
| N=C(NC(=O)c1ccccc1)N1CCc2[nH]cnc2C1 [compound 1450, 5-(N-benzoylguanyl)-4,5,6,7-tetrahydroimidazo-[4,5-c]-pyridine] |  |  |  | 34 mg/kg | > 10 mg/kg | > 50 mg/kg |  |  |
| CC(C)NC(=O)N1CCc2[nH]cnc2C1c1ccncc1 (stereo not shown) [compound 1467, 4-(4-pyridyl)-5-(N-isopropyl-carbamoyl)-4,5,6,7-tetrahydroimidazo-[4,5-c]-pyridine] |  |  |  | 50 mg/kg | 7 mg/kg | > 50 mg/kg |  |  |
